Reference: patent publication EP0908457B1, “3-(1,2-benzisothiazol- and isoxazol-5-Y1)-2,4(1H,3H)-pyrimidinedione or thione and 3-(1,2-benzisothiazol- and isoxazol-5-y1)-4(3H)-pyrimidinone or thione herbicidal agents” (BASF AKTIENGESELLSCHAFT, priority 1997, dated 1999)

How the values were obtained:
[1] = tested on: Oryza sativa, (L.) Tebonnet; experiment: Rice tolerance to post-transplant applications under flooded paddy conditions (Example 187), ORYSAT (Rice, Tebonnet); settings: rated three to four weeks after treatment
[2] = tested on: Cyperus serotinus, Rottb.; experiment: Preemergence weed control under flooded paddy conditions, CYPSE (Flatsedge); type: in vivo; settings: preemergence weeds, rated three to four weeks after treatment
[3] = tested on: Echinochloa oryzoides (Ard.) Fritsch.; experiment: Preemergence weed control under flooded paddy conditions, ECHORC (Watergrass (Calif.)); type: in vivo; settings: preemergence weeds, flooded paddy, rated three to four weeks after treatment
Sagittaria pygmaea, L. = experiment: Preemergence weed control under flooded paddy conditions, SAGPY (Arrowhead (Pygmaea)); type: in vivo; settings: preemergence weeds, flooded paddy, rated three to four weeks after treatment
[4] = tested on: Monochoria vaginalis, Presl.; experiment: Preemergence weed control under flooded paddy conditions, MOOVA (Monochoria); type: in vivo; settings: preemergence weeds, flooded paddy, rated three to four weeks after treatment
Cyperus iria = experiment: Preemergence weed control under flooded paddy conditions, CYPIR (Rice Flatsedge); type: in vivo; settings: preemergence weeds, flooded paddy, rated three to four weeks after treatment
Also: meaning of each grade not given here.

SMILES | herbicidal effect rating ORYSAT ([1]; Rate 0.2500 kg/ha) | herbicidal effect rating, CYPSE ([2]; Rate 0.2500 kg/ha) | herbicidal effect rating, ECHORC ([3]; Rate 0.2500 kg/ha) | herbicidal effect rating, SAGPY (Sagittaria pygmaea, L.; Rate 0.2500 kg/ha) | herbicidal effect rating, MOOVA ([4]; Rate 0.2500 kg/ha) | herbicidal effect rating, CYPIR (Cyperus iria; Rate 0.2500 kg/ha) | herbicidal effect rating ORYSAT ([1]; Rate 0.0320 kg/ha) | herbicidal effect rating ORYSAT ([1]; Rate 0.0620 kg/ha) | herbicidal effect rating ORYSAT ([1]; Rate 0.1250 kg/ha) | herbicidal effect rating, CYPSE ([2]; Rate 0.0320 kg/ha) | herbicidal effect rating, CYPSE ([2]; Rate 0.0620 kg/ha) | herbicidal effect rating, CYPSE ([2]; Rate 0.1250 kg/ha) | herbicidal effect rating, ECHORC ([3]; Rate 0.0320 kg/ha) | herbicidal effect rating, ECHORC ([3]; Rate 0.0620 kg/ha) | herbicidal effect rating, ECHORC ([3]; Rate 0.1250 kg/ha) | herbicidal effect rating, SAGPY (Sagittaria pygmaea, L.; Rate 0.0320 kg/ha) | herbicidal effect rating, SAGPY (Sagittaria pygmaea, L.; Rate 0.0620 kg/ha) | herbicidal effect rating, SAGPY (Sagittaria pygmaea, L.; Rate 0.1250 kg/ha) | herbicidal effect rating, MOOVA ([4]; Rate 0.0320 kg/ha) | herbicidal effect rating, MOOVA ([4]; Rate 0.0620 kg/ha) | other results
COC(=O)CN(Cc1nsc2ccc(-n3c(=O)cc(C(F)(F)F)n(C)c3=O)cc12)S(C)(=O)=O [Example 306, Glycine, N-{{5-[3,6-dihydro-3-methyl-2,6-dioxo-4-(trifluoromethyl)-1(2H)-pyrimidinyl]-1,2-benzisothiazol-3-yl}methyl}-N-(methylsulfonyl)-, methyl ester] | 0.0 | 0.0 | 0.0 | 0.0 | 0.0 | 0.0 | – | – | – | – | – | – | – | – | – | – | – | – | – | – | –
CC(=O)c1nsc2ccc(-n3c(=O)cc(C(F)(F)F)n(C)c3=O)cc12 [Example 307, 2,4(1H,3H)-Pyrimidinedione, 3-(3-acetyl-1,2-benzisothiazol-5-yl)-1-methyl-6-(trifluoromethyl)-] | 9.0 | 9.0 | 9.0 | 9.0 | 9.0 | 7.5 | 5.0 | 6.0 | 8.5 | 0.0 | 3.5 | 7.0 | 6.0 | 5.0 | 8.5 | 0.0 | 1.0 | 6.5 | 6.0 | 8.0 | herbicidal effect rating, MOOVA ([4]; Rate 0.1250 kg/ha): 9.0; herbicidal effect rating, CYPIR (Cyperus iria; Rate 0.0320 kg/ha): 6.5; herbicidal effect rating, CYPIR (Cyperus iria; Rate 0.0620 kg/ha): 6.5; herbicidal effect rating, CYPIR (Cyperus iria; Rate 0.1250 kg/ha): 6.5
CC(O)c1nsc2ccc(-n3c(=O)cc(C(F)(F)F)n(C)c3=O)cc12 (stereo not drawn) [Example 308, 2,4(1H,3H)-Pyrimidinedione, 3-[3-(1-hydroxyethyl)-1,2-benzisothiazol-5-yl]-1-methyl-6-(trifluoromethyl)-] | 7.0 | 9.0 | 9.0 | 9.0 | 0.0 | 0.0 | 5.0 | 5.0 | 6.0 | 0.0 | 0.0 | 3.0 | 5.0 | 5.0 | 6.0 | 0.0 | 0.0 | 3.0 | 0.0 | 0.0 | herbicidal effect rating, MOOVA ([4]; Rate 0.1250 kg/ha): 0.0; herbicidal effect rating, CYPIR (Cyperus iria; Rate 0.0320 kg/ha): 0.0; herbicidal effect rating, CYPIR (Cyperus iria; Rate 0.0620 kg/ha): 0.0; herbicidal effect rating, CYPIR (Cyperus iria; Rate 0.1250 kg/ha): 0.0
Cn1c(C(F)(F)F)cc(=O)n(-c2ccc3snc(CN=C=S)c3c2)c1=O [Example 311, Isothiocyanic acid, {5-[3,6-dihydro-3-methyl-2,6-dioxo-4-(trifluoromethyl)-1(2H)-pyrimidinyl]-1,2-benzisothiazol-3-yl}methyl ester] | 2.0 | 0.0 | 0.0 | 0.0 | 9.0 | 9.0 | 0.0 | 0.0 | 2.0 | 0.0 | 0.0 | 0.0 | 0.0 | 0.0 | 0.0 | 0.0 | 0.0 | 0.0 | 0.0 | 9.0 | herbicidal effect rating, MOOVA ([4]; Rate 0.1250 kg/ha): 9.0; herbicidal effect rating, CYPIR (Cyperus iria; Rate 0.0320 kg/ha): 0.0; herbicidal effect rating, CYPIR (Cyperus iria; Rate 0.0620 kg/ha): 9.0; herbicidal effect rating, CYPIR (Cyperus iria; Rate 0.1250 kg/ha): 9.0
Cn1c(C(F)(F)F)cc(=O)n(-c2ccc3snc(-c4ccccc4OCC(=O)O)c3c2)c1=O [Example 312, Acetic acid, {o-{5-[3,6-dihydro-3-methyl-2,6-dioxo-4-(trifluoromethyl)-1(2H)-pyrimidinyl]-1,2-benzisothiazol-3-yl}phenoxy}-] | 7.5 | 6.0 | 9.0 | 6.5 | 9.0 | 9.0 | 5.0 | 6.5 | 7.0 | 0.0 | 3.5 | 4.5 | 6.0 | 6.5 | 9.0 | 0.0 | 2.0 | 5.5 | 4.5 | 6.0 | herbicidal effect rating, MOOVA ([4]; Rate 0.1250 kg/ha): 9.0; herbicidal effect rating, CYPIR (Cyperus iria; Rate 0.0320 kg/ha): 4.5; herbicidal effect rating, CYPIR (Cyperus iria; Rate 0.0620 kg/ha): 6.5; herbicidal effect rating, CYPIR (Cyperus iria; Rate 0.1250 kg/ha): 9.0
Cc1ccc(OCC(=O)NO)c(-c2nsc3ccc(-n4c(=O)cc(C(F)(F)F)n(C)c4=O)cc23)c1 [Example 313, Acetohydroxamic acid, 2-{{2-{5-[3,6-dihydro-3-methyl-2,6-dioxo-4-(trifluoromethyl)-1(2H)-pyrimidinyl]-1,2-benzisothiazol-3-yl}-p-tolyl}oxy}-] | 4.0 | 2.0 | 9.0 | 3.0 | 9.0 | 9.0 | 0.0 | 1.0 | 3.0 | 0.0 | 0.0 | 0.0 | 4.0 | 5.0 | 6.0 | 0.0 | 0.0 | 0.0 | 0.0 | 9.0 | herbicidal effect rating, MOOVA ([4]; Rate 0.1250 kg/ha): 9.0; herbicidal effect rating, CYPIR (Cyperus iria; Rate 0.0320 kg/ha): 0.0; herbicidal effect rating, CYPIR (Cyperus iria; Rate 0.0620 kg/ha): 0.0; herbicidal effect rating, CYPIR (Cyperus iria; Rate 0.1250 kg/ha): 9.0
